Results reported in paper PMC10916560 (Food Science & Nutrition, 2023).
“Also recorded” adds a separate entry of the source. Like-named read-outs stand apart in the source and are kept apart here.

Legend:
[1] = ref El-Hady et al., 2013; cited from earlier work
AChE = conditions: read-out: AChE IC50; ref El-Hady et al., 2013; cited from earlier work
[2] = DPPH radical scavenging activity; assay type: biochemical; conditions: for DPPH radical scavenging activity: mean ± SD, n = 3; for free-radical scavenging activity (DPPH and ABTS): 0.2 mg/mL (200 μg/mL)
Procedure: The DPPH scavenging activities of PWE and isolated compounds were determined according to the method described by Blois ([1958]). In the method, the stable DPPH radical is removed by the free‐radical scavenging activity of the sample. […] Then, the prepared DPPH solution (1 mL, […]) was added, followed by incubation for 30 min in the dark. After incubation, the DPPH elimination activity of the sample was measured spectrophotometrically (Necip et al., [2021]).

[3] = ABTS radical scavenging activity; assay type: biochemical; conditions: 0.2 mg/mL; mean ± SD, n = 3
Procedure: ABTS also forms a relatively stable free‐radical that removes color in its non‐radical form (Shirwaikar et al., [2006]). Spectrophotometric analysis of ABTS˙^+ scavenging activity was determined according to the Re method. In this method, the sample is added to the previously formed ABTS radical solution, and the amount of ABTS˙^+ remaining after a fixed time is spectrophotometrically at 734 nm. […] The absorbance was recorded 30 min after mixing, and the percentage of radical scavenging was calculated for each concentration compared to the blank sample without scavenger (Necip & Durgun, [2022]; Re et al., [1999]).

[4] = biological target: AChE from electrophorus electricus (Electrophorus electricus, UniProt O42275); assay: biochemical
Chain of AChE from electrophorus electricus (O42275 24-633): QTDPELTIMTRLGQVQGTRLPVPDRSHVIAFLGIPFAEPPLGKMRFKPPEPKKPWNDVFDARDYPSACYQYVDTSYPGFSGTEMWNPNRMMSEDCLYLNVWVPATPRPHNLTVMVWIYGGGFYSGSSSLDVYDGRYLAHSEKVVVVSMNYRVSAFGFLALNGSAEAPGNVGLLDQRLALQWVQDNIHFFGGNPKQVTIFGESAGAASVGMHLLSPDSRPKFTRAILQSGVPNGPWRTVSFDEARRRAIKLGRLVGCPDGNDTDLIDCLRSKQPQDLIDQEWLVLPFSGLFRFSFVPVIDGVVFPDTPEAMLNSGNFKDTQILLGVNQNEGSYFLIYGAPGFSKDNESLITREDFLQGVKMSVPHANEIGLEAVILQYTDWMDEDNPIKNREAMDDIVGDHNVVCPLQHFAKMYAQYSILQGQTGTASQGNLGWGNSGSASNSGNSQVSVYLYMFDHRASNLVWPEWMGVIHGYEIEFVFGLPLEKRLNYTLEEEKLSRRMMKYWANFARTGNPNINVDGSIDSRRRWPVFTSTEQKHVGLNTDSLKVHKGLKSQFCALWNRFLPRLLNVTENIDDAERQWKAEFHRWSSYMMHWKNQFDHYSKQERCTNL
Procedure: Briefly, 50 μL of 5,5′‐dithio‐bis(2‐nitro‐benzoic) acid compound (DTNB) and 100 μL of Tris–HCl solution (1 M, pH 8.0) and 50 μL AChE from electrophorus electricus (5.32 × 10^−3 U) solution was incubated and stirred at 30°C for 15 min. Finally, the reaction was started by adding 50 μL of acetylthiocholine iodide (AChI), which was used as a substrate. Enzymatic hydrolysis of the substrate was recorded spectrophotometrically at a wavelength of 412 nm (Işık et al., [2020]; Wright & Plummer, [1973]). […] Percent inhibition values and IC50 values were determined using a graph (Kilic et al., [2020]).

[5] = FRAP metal reduction assay; assay type: biochemical; conditions: for metal reduction capacity, FRAP (in words): 0.2 mg/mL, Figure 5; for metal-reducing capacity (in words): FRAP and CUPRAC, statement in discussion
Procedure: (§1) The ferric cyanide (Fe^3+) reducing antioxidant power (FRAP) assay was performed using the modified method of the previously described Oyaizu method (Oyaizu, [1986]). The complex is formed when the method is reduced to the ferrous (Fe^2+) ion to ferric tripyridyl triazene (Fe^3+‐TPTZ) complex at 700 nm. It is based on the spectrophotometric measurement of the complex. The reduction capacity for cupric ions (Cu^2+) was determined by cupric ions reducing assay (CUPRAC) as previously described. A volume of 0.25 mL neocuproine (7.5 mM) in ethanol, 0.25 mL NH4Ac (1 M), and 0.25 mL CuCl2 (0.01 M) were mixed with isolated compounds, PWE, and different amounts of standards (10, 20, and 40 μg/mL).

[6] = CUPRAC cupric ions reducing assay; assay type: biochemical; conditions: 0.2 mg/mL, Figure 5
Procedure: as §1

SMILES: CC(C)=CCC[C@@H](C)[C@H]1CC[C@@]2(C)[C@@H]3CC[C@H]4C(C)(C)[C@@H](O)CC[C@@]45C[C@@]35CC[C@]12C [3β‐cycloartenol]
- free-radical scavenging activity [1]: 59%
- IC50 (AChE): 3.6 ± 0.1 µM

SMILES: O=c1cc(-c2ccc(O)cc2)oc2cc(O)cc(O)c12 [Apigenin, apigenin]
- DPPH radical scavenging activity ([2]; 0.2 mg/mL): 79.02 ± 2.2%
- free-radical scavenging activity (DPPH and ABTS) ([2]; DPPH and ABTS): over 60%
- ABTS radical scavenging activity [3]: 59.41 ± 1.5%
- IC50 [4]: 710 ± 30 µM
- metal reduction capacity, FRAP (in words) [5]: moderate metal reduction capacity
- metal-reducing capacity (in words) [5]: high metal‐reducing capacity
- metal reduction capacity, CUPRAC (in words) [6]: metal reduction capacity close to the standards

SMILES: COc1ccc(O)c(C(C)(C)C)c1 [BHA, reference compound]
- DPPH radical scavenging activity ([2]; 0.2 mg/mL): 80.20 ± 2.9%
- ABTS radical scavenging activity [3]: 93.62 ± 3.6%

SMILES: Cc1cc(C(C)(C)C)c(O)c(C(C)(C)C)c1 [BHT, reference compound]
- DPPH radical scavenging activity ([2]; 0.2 mg/mL): 51.57 ± 1.5%
- ABTS radical scavenging activity [3]: 58.06 ± 2.4%

SMILES: O=c1cc(-c2ccccc2)oc2cc(O)cc(O)c12 [Chrysin, chrysin]
- DPPH radical scavenging activity ([2]; 0.2 mg/mL): Inactive
- ABTS radical scavenging activity [3]: 4.35 ± 0.7%
- IC50 [4]: 640 ± 20 µM

SMILES: COc1cc2ccc(=O)oc2c(O)c1O [Fraxetin, fraxetin]
- DPPH radical scavenging activity ([2]; 0.2 mg/mL): 81.11 ± 1.7%
- radical scavenging activity (in words) ([2]; DPPH and ABTS, 0.2 mg/mL): highest radical scavenging activities
- free-radical scavenging activity (DPPH and ABTS) ([2]; DPPH and ABTS): over 60%
- ABTS radical scavenging activity [3]: 87.44 ± 3.8%
- IC50 [4]: 730 ± 40 µM
- metal reduction capacity, FRAP (in words) [5]: moderate metal reduction capacity
- metal-reducing capacity (in words) [5]: high metal‐reducing capacity
- metal reduction capacity, CUPRAC (in words) [6]: metal reduction capacity close to the standards

SMILES: O=c1c(O)c(-c2ccccc2)oc2cc(O)cc(O)c12 [Galangin, galangin]
- DPPH radical scavenging activity ([2]; 0.2 mg/mL): 44.73 ± 1.8%
- free-radical scavenging activity (DPPH and ABTS) ([2]; DPPH and ABTS): over 60%
- ABTS radical scavenging activity [3]: 62.01 ± 1.9%
- IC50 [4]: 790 ± 20 µM
- metal reduction capacity, FRAP (in words) [5]: high metal reduction activity
- metal-reducing capacity (in words) [5]: high metal‐reducing capacity
- metal reduction capacity, CUPRAC (in words) ([6]; listed as 15): high metal reduction activity; also recorded: metal reduction capacity close to the standards

SMILES: COc1cc(O)c2c(=O)cc(-c3ccc(O)cc3)oc2c1 [Genkwanin, genkwanin]
- DPPH radical scavenging activity ([2]; 0.2 mg/mL): Inactive
- ABTS radical scavenging activity [3]: 8.95 ± 0.8%
- IC50 [4]: 1150 ± 30 µM

SMILES: O=C1c2c(O)cc(O)cc2O[C@H](c2ccccc2)[C@H]1O [Pinobanksin, pinobanksin]
- DPPH radical scavenging activity ([2]; 0.2 mg/mL): 3.55 ± 0.6%
- ABTS radical scavenging activity [3]: 15.63 ± 0.9%
- IC50 [4]: 450 ± 10 µM

SMILES: O=C1C[C@@H](c2ccccc2)Oc2cc(O)cc(O)c21 [Pinocembrin, pinocembrin]
- DPPH radical scavenging activity ([2]; 0.2 mg/mL): Inactive
- ABTS radical scavenging activity [3]: 26.32 ± 1.3%
- IC50 ([4]; isolated compounds, read-out: AChE (IC50)): 1100 ± 40 µM

SMILES: Cc1c(C)c2c(c(C)c1O)CCC(C)(C(=O)O)O2 (stereo not drawn) [Trolox, trolox, reference compound]
- DPPH radical scavenging activity ([2]; 0.2 mg/mL): 90.37 ± 3.8%
- ABTS radical scavenging activity [3]: 89.99 ± 3.2%
